In ChEMBL document CHEMBL1955762, “An iminosugar N-pentafluorobenzyl-1-deoxynojirimycin as a novel potential immunosuppressant for the treatment of Th2-related diseases” (Bioorg Med Chem Lett, 2012):
pIC50: −log10 of the molar value. Activity calls are given as the source filed them. No cut-off for these calls is given here.

Legend:
[1] = tested on: T-cell; assay: Immunosuppressant activity in human CD4+ T cells assessed as Con A-induced intracellular IL4 level at 90 uM after 72 hrs by flow cytometry (reference value: 4.2+/-0.9%); assay type: functional
[2] = tested on: PBMC; assay: Inhibition of Con-A-induced phospho-STAT6 expression in human PBMC at 90 uM after 72 hrs by flow cytometry (reference value: 10.52+/-1.9%); assay type: functional; conditions: read-out: INH
[3] = target: Tyrosine-protein kinase JAK1 (Homo sapiens) (UniProt P23458); assay: Inhibition of JAK1-mediated GATA3 phosphorylation in PMA-stimulated human PBMC at 90 uM after 30 mins by Western blot analysis
Chain of Tyrosine-protein kinase JAK1 (Homo sapiens) (P23458 whole entry): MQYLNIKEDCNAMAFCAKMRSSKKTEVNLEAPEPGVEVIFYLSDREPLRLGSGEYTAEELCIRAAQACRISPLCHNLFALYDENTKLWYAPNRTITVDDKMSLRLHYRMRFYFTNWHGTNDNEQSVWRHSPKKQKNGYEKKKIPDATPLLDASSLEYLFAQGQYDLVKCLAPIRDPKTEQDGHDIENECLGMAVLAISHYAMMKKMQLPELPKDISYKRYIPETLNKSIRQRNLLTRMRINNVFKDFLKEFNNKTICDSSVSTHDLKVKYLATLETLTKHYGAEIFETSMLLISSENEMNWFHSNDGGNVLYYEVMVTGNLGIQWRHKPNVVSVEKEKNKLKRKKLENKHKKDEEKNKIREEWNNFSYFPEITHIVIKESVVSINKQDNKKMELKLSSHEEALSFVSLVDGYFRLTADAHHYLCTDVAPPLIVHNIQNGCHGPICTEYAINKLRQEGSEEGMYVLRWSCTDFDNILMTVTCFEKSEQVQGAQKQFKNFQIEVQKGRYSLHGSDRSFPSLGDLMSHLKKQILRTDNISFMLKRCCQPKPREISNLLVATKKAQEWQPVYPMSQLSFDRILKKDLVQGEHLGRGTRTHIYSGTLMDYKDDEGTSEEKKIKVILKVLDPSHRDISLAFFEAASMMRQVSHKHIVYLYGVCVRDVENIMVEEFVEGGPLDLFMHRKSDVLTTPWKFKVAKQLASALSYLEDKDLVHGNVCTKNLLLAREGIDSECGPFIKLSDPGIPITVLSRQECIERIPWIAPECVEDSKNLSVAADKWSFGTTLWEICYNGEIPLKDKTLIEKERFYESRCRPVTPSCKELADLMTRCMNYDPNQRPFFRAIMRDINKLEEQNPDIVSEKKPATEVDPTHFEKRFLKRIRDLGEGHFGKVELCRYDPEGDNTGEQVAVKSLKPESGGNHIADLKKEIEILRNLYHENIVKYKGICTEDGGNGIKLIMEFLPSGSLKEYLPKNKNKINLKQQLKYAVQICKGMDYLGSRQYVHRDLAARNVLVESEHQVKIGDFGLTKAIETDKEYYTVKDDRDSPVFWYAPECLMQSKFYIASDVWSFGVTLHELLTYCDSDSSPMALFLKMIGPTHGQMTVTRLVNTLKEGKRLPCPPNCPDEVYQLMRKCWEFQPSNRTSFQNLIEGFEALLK

[4] = tested on: PBMC; assay: Inhibition of Con A-induced phospho-GATA3 expression in human PBMC at 90 uM after 72 hrs by flow cytometry; assay type: functional, cell-based
[5] = tested on: PBMC; assay: Inhibition of PMA-induced GATA3 expression in human PBMC at 90 uM after 15 mins by Western blot analysis; assay type: functional, cell-based
[6] = tested on: PBMC; assay: Inhibition of PMA-induced JAK1 expression in human PBMC at 90 uM after 15 mins by Western blot analysis; assay type: functional, cell-based
[7] = tested on: PBMC; assay: Inhibition of ConA-induced phospho-JAK1 expression in human PBMC at 90 uM after 72 hrs by flow cytometry; assay type: functional, cell-based
[8] = target: Tyrosine-protein kinase JAK1 (Homo sapiens) (UniProt P23458); assay: Inhibition of PMA-induced JAK1 phosphorylation in human PBMC at 90 uM after 15 mins by Western blot analysis
[9] = tested on: PBMC; assay: Immunosuppressant activity in human PBMC assessed as reduction in Con A-induced extracellular IL4 level at 90 uM after 72 hrs by ELISA relative to untreated control; assay type: functional; set-up: scale not given: the % may be the effect or the level left
[10] = tested on: T-cell; assay: Immunosuppressant activity in human CD3+ CD4+ T cells pretreated with TritonX 100 assessed as CD4 internalization at 90 uM after 72 hrs by confocal laser scanning microscopy; assay type: functional, cell-based
[11] = tested on: T-cell; assay: Immunosuppressant activity in human CD3+ CD4+ T cells assessed as reduction in CD4 surface expression at 90 uM after 72 hrs by flow cytometry (reference value: 46%); assay type: functional; set-up: scale not given: the % may be the effect or the level left
[12] = tested on: PBMC; assay: Induction of apoptosis in Con A-stimulated human PBMC assessed as early apoptotic cells at 90 uM after 72 hrs by annexin V/PI based flow cytometric analysis (reference value: 6.3 %); assay type: cell-based
[13] = target: Tyrosine-protein kinase JAK1 (Homo sapiens) (UniProt P23458); assay: Inhibition of PMA-induced JAK1 phosphorylation in human PBMC at 90 uM by Western blot analysis; conditions: TDE = time-dependent effect
[14] = tested on: Mus musculus; assay: Immunosuppressant activity in C57BL/6 mouse infected with Schistosoma japonicum assessed as decrease in liver granuloma size at 100 mM, iv after 45 days; assay type: functional, organism-based
[15] = tested on: Mus musculus; assay: Immunosuppressant activity in C57BL/6 mouse infected with Schistosoma japonicum assessed as inhibition of IL-4 production in liver at 100 mM, iv after 45 days by ELISA; assay type: functional, organism-based
[16] = tested on: Mus musculus; assay: Immunosuppressant activity in C57BL/6 mouse infected with Schistosoma japonicum assessed as inhibition of IFN-gamma production in spleen at 100 mM, iv after 45 days by ELISA; assay type: functional, organism-based
[17] = tested on: Splenocyte; assay: Immunosuppressant activity in BALB/c mouse splenocytes assessed as reduction in Con A-induced IL4 secretion at 90 uM after 72 hrs by ELISA; assay type: functional, cell-based
[18] = tested on: Mus musculus; assay: Immunosuppressant activity in C57BL/6 mouse infected with Schistosoma japonicum assessed as inhibition of IFN-gamma production in spleen at 100 mM, iv after 56 days by ELISA; assay type: functional, organism-based
[19] = tested on: T-cell; assay: Immunosuppressant activity in human CD3+ CD4+ T cells pretreated with TritonX 100 assessed as reduction in CD4 surface expression at 90 uM after 72 hrs by flow cytometry (reference value: 46%); assay type: functional; set-up: scale not given: the % may be the effect or the level left
[20] = tested on: Mus musculus; assay: Immunosuppressant activity in C57BL/6 mouse infected with Schistosoma japonicum assessed as inhibition of IL-4 production in liver at 100 mM, iv after 56 days by ELISA; assay type: functional, organism-based
[21] = tested on: Schistosoma japonicum; assay: Antischistosomiasis activity against Schistosoma japonicum infected in C57BL/6 mouse at 100 mM, iv after 45 days; assay type: functional, organism-based
[22] = tested on: Mus musculus; assay: Immunosuppressant activity in C57BL/6 mouse infected with Schistosoma japonicum assessed as inhibition of IFN-gamma production in liver at 100 mM, iv after 45 days by ELISA; assay type: functional, organism-based
[23] = Induction of apoptosis in Con A-stimulated human PBMC assessed as viable cells at 90 uM after 72 hrs by annexin V/PI based flow cytometric analysis (reference value: 84.6 %); assay type: cell-based; conditions: read-out: Activity
[24] = target: Tyrosine-protein kinase JAK1 (Homo sapiens) (UniProt P23458); assay: Inhibition of JAK1-mediated GATA3 phosphorylation in PMA-stimulated human PBMC at 90 uM by Western blot analysis; conditions: TDE = time-dependent effect
[25] = tested on: Mus musculus; assay: Immunosuppressant activity in C57BL/6 mouse infected with Schistosoma japonicum assessed as inhibition of IL-4 production in spleen at 100 mM, iv after 56 days by ELISA; assay type: functional, organism-based
[26] = tested on: Mus musculus; assay: Immunosuppressant activity in C57BL/6 mouse infected with Schistosoma japonicum assessed as inhibition of IFN-gamma production in liver at 100 mM, iv after 56 days by ELISA; assay type: functional, organism-based
[27] = tested on: PBMC; assay: Induction of apoptosis in Con A-stimulated human PBMC assessed as necrotic cells at 90 uM after 72 hrs by annexin V/PI based flow cytometric analysis (reference value: 5.8 %); assay type: cell-based
[28] = tested on: T-cell; assay: Inhibition of CD4 expression in human CD4+ T cells; assay type: functional, cell-based
[29] = tested on: PBMC; assay: Induction of apoptosis in Con A-stimulated human PBMC assessed as late apoptotic cells at 90 uM after 72 hrs by annexin V/PI based flow cytometric analysis (reference value: 4.3 %); assay type: cell-based

| Compound | Activity [1] | phospho-STAT6 expression level at 90 µM [2] | inhibition [3] | inhibition [4] | inhibition [5] | inhibition [6] | inhibition [7] | inhibition [8] | Activity [9] | pIC50 [28] | further results |
| --- | --- | --- | --- | --- | --- | --- | --- | --- | --- | --- | --- |
| OC[C@H]1NC[C@@H](O)[C@@H](O)[C@@H]1O [DEOXYMANNOJIRIMYCIN] | 1.5% | 8.8% | inactive | Active | inactive | inactive | Active | inactive | – | – | – |
| C/C=C/C[C@@H](C)[C@@H](O)[C@H]1C(=O)N[C@@H](CC)C(=O)N(C)CC(=O)N(C)[C@@H](CC(C)C)C(=O)N[C@@H](C(C)C)C(=O)N(C)[C@@H](CC(C)C)C(=O)N[C@@H](C)C(=O)N[C@H](C)C(=O)N(C)[C@@H](CC(C)C)C(=O)N(C)[C@@H](CC(C)C)C(=O)N(C)[C@@H](C(C)C)C(=O)N1C [CYCLOSPORINE] | 0.71% | 3.7% | – | – | – | – | – | – | 26% | – | – |
| OC[C@@H]1[C@@H](O)[C@H](O)[C@@H](O)CN1Cc1c(F)c(F)c(F)c(F)c1F | 0.79% | 4.5% | Active | Active | inactive | inactive | Active | Active | 26% | 4.70 | Activity [10]: Active; Activity [11]: 28%; Activity [12]: 7.2%; inhibition [13]: tde; Activity [14]: Active; inhibition [15]: inactive; inhibition [16]: inactive; Activity [17]: Active; inhibition [18]: inactive; Activity [19]: 44%; inhibition [20]: inactive; Activity [21]: Active; inhibition [22]: inactive; viability at 72 h, 90 µM [23]: 83%; inhibition [24]: tde; inhibition [25]: Active; inhibition [26]: inactive; Activity [27]: 4.7%; Activity [29]: 5.2% |
| OC[C@H]1NC[C@H](O)[C@@H](O)[C@@H]1O [DUVOGLUSTAT] | 2.53% | 9.6% | inactive | Active | inactive | inactive | Active | inactive | inactive | 4.59 | – |
